Columns and labels:
Type in all cases: functional
MCF7 = assay: Cytotoxicity against Homo sapiens (human) MCF7 assessed as cell growth at 10^-4 M after 48 hr by Alamar Blue assay; conditions: MCF7, 48 h, read-out: Activity
NCI-H460 = assay: Cytotoxicity against Homo sapiens (human) NCI-H460 assessed as cell growth at 10^-4 M after 48 hr by Alamar Blue assay; conditions: NCI-H460, 48 h, read-out: Activity
SF-268 = assay: Cytotoxicity against Homo sapiens (human) SF268 assessed as cell growth at 10^-4 M after 48 hr by Alamar Blue assay; conditions: SF-268, 48 h, read-out: Activity

SMILES	growth at 100 µM (MCF7) [%]	growth at 100 µM (NCI-H460) [%]	growth at 100 µM (SF-268) [%]
COc1ccc(C2=C3SC=c4ccccc4=C3ON=C2c2ccc(Cl)cc2)cc1	51	85	102
Cc1ccc(C2=NOC3=c4ccccc4=CSC3=C2c2ccc([N+](=O)[O-])cc2)cc1	99	97	111
O=[N+]([O-])c1ccc(C2=C3SC=c4ccccc4=C3ON=C2c2ccc(Cl)cc2)cc1	85	97	104
C1=c2ccccc2=C2ON=C(c3ccccc3)C(c3ccccc3)=C2S1	104	94	97
Cc1ccc(C2=NOC3=c4ccccc4=CSC3=C2c2ccccc2)cc1	51	92	66
COc1ccc(C2=NOC3=c4ccccc4=CSC3=C2c2ccccc2)cc1	97	101	106
O=[N+]([O-])c1ccc(C2=NOC3=c4ccccc4=CSC3=C2c2ccccc2)cc1	62	100	101
Clc1ccc(C2=NOC3=c4ccccc4=CSC3=C2c2ccccc2)cc1	95	92	95

Source: ChEMBL document CHEMBL3046904, “Synthesis, characterization, bioactivity, and POM analyses of isothiochromeno[3,4-e][1,2]oxazines” (2013)
